We go through eight compounds from US6881584B1, “Infrared thermography” (SmithKline Beecham Corporation, priority 1998, dated 2005).

One data set has as its system thoracic area. The experiment in a line: Infrared thermography of thoracic area of nude mice treated with inhalant. Conditions: vs vehicle. The data set is classed as in vivo. Here is the method: (§1) Male AKR/J, C57BL/6J, and SWR/J mice were purchased from 4-8 weeks of age from Jackson Laboratories (Bar Harbor, Me.). Mice were fed high and low fats diets containing high sucrose as defined by Surwit et al., (Metabolism 44(5):645-651 (1995)). After 14 weeks on these diets, the intrascapular fur was shaved, the animals were dosed (intraperitineal) with 1 mg/kg of BRL37344, and the animals were anesthetized with isofluorane. Nude mice (BALB/C) were 6-8 weeks old and were dosed with inhalant two times before thermal profiling. The Lewis rat strain (200-250 g) were used for both the MED and inflammation experiments. Infrared thermographic images and temperature calculations were recorded using an Agema Thermovision 900 Infrared System.
Furthermore, the bioavailability and bioactivity of inhalants in animals and man is often difficult to measure and quantitate. Assays available for measuring bioavailabilty of inhalants involve measuring the uptake of radiolabeled inhalant in selected tissues (eg. lung). Infrared thermography provides a non-invasive method for measuring the bioavailibilty/bioactivity of inhalant compounds. Thus, infrared thermography was used to measure the thermal activity induced by an inhalant in the thoracic area of nude mice.

The subject of data set [1] is intrascapular brown adipose tissue (IBAT). The experiment in a line: IBAT thermogenesis in ob/ob mice treated with PPARγ agonist. The data set is classed as in vivo. Conditions: two weeks treatment, compared to control animals. How it is done: (§2) Heat generation was measured using a Stirling cooled Agema Thermovision 900 Infrared System AB (Marietta, Ga.) equipped with a SW Scanner and 40°×25° lens which detects a 2-5.4 micron spectral response. […] The focal distance was 6 cm. Images were captured using a recurs function set at 16 or an averaging function set at 32. The data was analyzed using OS-9 advanced systems and ERIKA 2.00 software according to the manufacturer's specifications (FLIR Infrared Systems AB, Danderyd, Sweden). Thermography of adipocytes was performed by maintaining the ambient temperature of the cultured cells at 37±0.02° C. using a Queue Systems Inc. (Parkersburg, W.Va.) incubator, model QWJ500SABA. Spectral analysis of yeast was performed at 30±0.02° C. using the same incubator system. After treating the cells with experimental agents (e.g., rotenone etc.), the temperature was equilibrated for 10 minutes in the incubator before measuring real time thermogenesis for all microtiter plate applications. Various color scales in the visible wavelength were used to depict the temperature fluctuations of the recorded images. Although temperature scales are constant, the color scale images are variable and can be adjusted with level and span controls.

The test system of a further data set is C3H10T1/2 cells. Nature of the data set: Infrared thermography of heat production in differentiating C3H10T1/2 cells (PPARγ agonists). The data set is classed as cell-based. Conditions: in the presence of insulin and 9-cis retinoic acid (FIG. 7), read-out: EC50(μM), thermogenesis and lipogenesis assays. How it is done: (§3) Human subcutaneous adipocytes were purchased from Zen-Bio, Inc. (Research Triangle Park, N.C.). C3H10T1/2 clone 8 fibroblasts were differentiated into adipocytes as previously described (Lenhard et al, Biochem. Pharmacol. 54:801-808 (1997), Paulik and Lenhard, Cell Tissue Res. 290:79-87 (1997)). After 7 days in culture, triglyceride accumulation was determined by adding lipoprotein lipase and GPO-Trinder reagent (assay kit 337-B, Sigma Diagnostics, St. Louis, Mo.) to the cells (50 μl/cm^2) and incubating the lysates at 37° C. for 2 hours. The optical density was measured using a spectrophotometer set at a wavelength of 540 nm. Lipolysis was measured as previously described (Lenhard et al, Biochem. Pharmacol. 54:801-808 (1997)).
Heat generation was measured using a Stirling cooled Agema Thermovision 900 Infrared System AB (Marietta, Ga.) equipped with a SW Scanner and 40°×25° lens which detects a 2-5.4 micron spectral response. […] The focal distance was 6 cm. Images were captured using a recurs function set at 16 or an averaging function set at 32. The data was analyzed using OS-9 advanced systems and ERIKA 2.00 software according to the manufacturer's specifications (FLIR Infrared Systems AB, Danderyd, Sweden). […] Various color scales in the visible wavelength were used to depict the temperature fluctuations of the recorded images. […]

Data set [2] deals with C3H10T1/2 adipocytes. Nature of the data set: Infrared thermography of thermogenesis in cultured adipocytes (β-AR-agonists). Conditions: for EC50: Mus musculus. The data set is classed as cell-based. Here is the method:
as §3, §2
The β3-AR-agonists are candidate therapeutic agents for the treatment of diabetes and obesity. Although, the mechanism of action for these agents is thought to involve increased metabolic rate (Scarpace, Ann. N.Y. Acad. Sci. 813:111-116 (1997)), it has yet to be shown that β-AR-agonists increase heat output by adipocytes. Therefore, it was determined whether infrared imaging could be used to monitor the effects of β-AR-agonists on thermogenesis in cultured adipocytes.
(§4) As a control, the effects of β-AR-agonists on lipolysis was also measured. […] In general, this expands to measuring thermogenic activity of both catabolic and anabolic mediated-effects of potential drug candidates.

In data set [3] the test system is C3H10T1/2 adipocytes. Nature of the data set: Lipolysis in adipocytes treated with β-AR-agonists. Conditions: Mus musculus, C3H 10T1/2, read-out: EC50 (nM) Lipolysis. In kind it is cell-based. Here is the method:
as §3, §4

In data set [4] the target is T1, beta 3 adrenergic receptor (β3AR) (Homo sapiens, UniProt P13945).
T1 construct: expressed in transfected cells; host or cells: Chinese Hamster Ovary (CHO) cells
Nature of the data set: Infrared thermography of CHO cells overexpressing the β3AR receptor. In kind it is cell-based. How it is done: as §2

In a further data set the test system is genitalia. The experiment in a line: Thermogenesis in rat genitalia (male erectile dysfunction). In kind it is in vivo. Conditions: rats, 2 hours after PO dosing, 3.0 or 0.3 mg/kg. How it is done:
as §1
Male erectile dysfunction (MED) is treatable with drugs that increase blood flow to the genitalia. Increased local thermogenesis is associated with increased local blood flow. One drug that acts in this manner and treats MED is Pinacidil. […] Thus, infrared thermography provides a quantitative and non-invasive method for identifying and evaluating drug candidates for the MED indication as well as identifying candidates that can cause erection as a side effect.

The subject of another data set is UCP2. Nature of the data set: Infrared thermography of yeast expressing UCP2. In kind it is cell-based. Conditions: galactose-induced UCP2. How it is done:
Human skeletal muscle cDNA (#7175-1) was purchased from Clontech (Palo Alto, Calif.). UCP2 specific-sequences were PCR amplified from the sample using oligonucleotide primers that matched the 5′ and 3′ ends of a published sequence (GenBank U82819). Vent polymerase was used (New England Biolabs, Beverly, Mass.) in a standard reaction mixture with 2 mM MgSO4 and 5% DMSO. The cycle parameters were 94° C. for 1 min., 55° C. for 1 min., and 72° C. for 1 min., repeated 29 times. The sample was passed over an S-400 spin column (Pharmacia, Piscataway, N.J.) prior to ligation in a vector for transformation of E. coli. The authenticity of the clone was confirmed by DNA sequence analysis. For the experiments in yeast, the UCP2 coding sequence was amplified by PCR using primers with the sequence […] AAGGCCA (SEQ ID NO:1) (sense) and […] (SEQ ID NO:2) (antisense) followed by a second PCR using primers with the sequence […] (SEQ ID NO:3) (sense) and […] (SEQ ID NO:4) (antisense). The PCR product was cloned into pYX233 (R&D Systems) by homologous recombination in yeast strain W303 (a/a homozygous for ade2-1, his3-1, 15 leu2-3, 112, trp1-1, ura3-1). Yeast transformants were selected on BSM-trp agar (Bio 101, Vista, Calif.). The correct UCP2 sequence was verified by sequencing plasmids back-extracted from yeast to E. coli. […]

A further data set concerns yeast. The data set is classed as cell-based. Conditions: dose response, relative to untreated cells.
The test system of the next data set is human adipocytes. The experiment in a line: Infrared thermography of human adipocytes in 96-well plates. The data set is classed as cell-based. Conditions: dose response, relative to untreated cells.
The next data set relates to hair-loss. The experiment in a line: Chemotherapy-induced hair-loss by infrared thermography in newborn pups treated in utero. In kind it is in vivo, rat. Conditions: 6 mg/kg. The text has this: Hair loss can result from undesirable side-effects of various therapies (e.g., radiation treatment of cancer patients, surgery etc.) and can occur naturally with age, whereas surgical or pharmacological intervention can restore hair growth. Since hair provides insulation against heat loss and aids in the maintenance of a constant body temperature, it was of interest to determine if infrared thermography can be used to measure hair loss. The lack of progress in the treatment and prevention of chemotherapy-induced alopecia is in part due to the lack of a reproducible animal model as well as a quantitative method to measure hair-loss. To determine if infrared imaging can be used to quantitatively measure chemotherapy induced hair-loss, newborn rat pups that were treated in utero with the known cancer agent, etoposide, were thermally profiled for hair-loss.

Another data set concerns HUVEC cells. Conditions: 10 minutes. How it is done:
as §2

A further data set concerns tissue vascularization. Conditions: nude mice, vs control injection.
The next data set concerns liver. The data set is classed as in vivo. Conditions: ob/ob mice, 0.1-1 mg/kg i.p., 90 minutes, dose-dependent. Here is the method: FIG. 29. Liver thermogenesis in ob/ob mice 90 minutes after treatment with lipopolysaccharide (LPS) detected by IR thermography. Male ob/ob mice were housed and maintained as described in FIG. 1. Mice were dosed at 0.0, 0.1, 0.3, or 1 mg/kg LPS in water vehicle (0.5 mL i.p.; n=10 per dose) and anesthetized using isoflurane as described above 90 minutes after treatment. The abdomens of the anesthetized mice were surgically opened to expose the liver and Bioclusive adhesive was placed over the entire exposed area. IR images of the liver region were acquired and analyzed as detailed in FIG. 28. […] Quantification of the IR signal in the liver region is shown in the bottom panel. Data are means±SEM for n=10 animals per group. Asterisks (*) denote statistical differences from control (p<0.05, ANOVA with Student-Newman-Keuls post hoc tests).
Use of IR transparent adhesive to image liver thermogenesis in vivo. […] Indeed, temperature measurements obtained by IR thermography correlated well with liver toxicity measured as AST release (r=0.99). In addition, temperature changes measured using IR thermography correlated with alanine aminotransferase (ALT) release, another marker of liver injury (r=0.76, data not shown).

A word on the EC50: it is the concentration giving half of the maximal effect.

T1 sequence (P13945 whole entry): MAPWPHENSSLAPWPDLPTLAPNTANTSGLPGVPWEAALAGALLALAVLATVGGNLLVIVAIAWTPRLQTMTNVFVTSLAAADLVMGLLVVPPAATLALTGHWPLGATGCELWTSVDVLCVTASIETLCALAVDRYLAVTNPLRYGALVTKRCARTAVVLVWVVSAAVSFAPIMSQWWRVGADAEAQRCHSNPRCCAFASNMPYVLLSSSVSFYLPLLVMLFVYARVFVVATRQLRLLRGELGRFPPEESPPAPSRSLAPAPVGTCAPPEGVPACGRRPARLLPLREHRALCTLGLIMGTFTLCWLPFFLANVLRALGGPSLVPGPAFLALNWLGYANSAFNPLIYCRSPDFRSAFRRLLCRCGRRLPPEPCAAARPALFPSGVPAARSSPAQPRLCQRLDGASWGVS
Procedure for human adipocytes: Heat generation was measured using a Stirling cooled Agema Thermovision 900 Infrared System AB (Marietta, Ga.) equipped with a SW Scanner and 40°×25° lens which detects a 2-5.4 micron spectral response. […] The focal distance was 6 cm. Images were captured using a recurs function set at 16 or an averaging function set at 32. The data was analyzed using OS-9 advanced systems and ERIKA 2.00 software according to the manufacturer's specifications (FLIR Infrared Systems AB, Danderyd, Sweden). Thermography of adipocytes was performed by maintaining the ambient temperature of the cultured cells at 37±0.02° C. using a Queue Systems Inc. (Parkersburg, W.Va.) incubator, model QWJ500SABA. […] After treating the cells with experimental agents (e.g., rotenone etc.), the temperature was equilibrated for 10 minutes in the incubator before measuring real time thermogenesis for all microtiter plate applications. Various color scales in the visible wavelength were used to depict the temperature fluctuations of the recorded images. Although temperature scales are constant, the color scale images are variable and can be adjusted with level and span controls.
Procedure for tissue vascularization: Nude mice were injected with either VEGF peptide or a control followed by themographic imaging of both injection sites.

With `CC(C)(C)NCC(O)c1ccc(O)c(CO)c1` (centres unmarked) [Albuterol], the torso area temperature entry in the data set with thoracic area is reported as “torso temperature increases after 2.5 minutes”.
On to `CN(CCOc1ccc(C[C@H](Nc2ccccc2C(=O)c2ccccc2)C(=O)O)cc1)c1ccccn1` [GW1929], for which the IBAT thermogenesis result in [1] is reported as “reduction in IBAT thermogenesis”. For the same compound, the EC50 in the data set on C3H10T1/2 cells came out at 0.052 µM.
Turning to `CC(C)NCC(O)c1ccc(O)c(O)c1` (centres unmarked) [Isoproterenol], in the data set on C3H10T1/2 adipocytes [2] (C3H10T1/2 adipocytes), the stimulation of thermogenesis result is listed as “stimulated”. The concentration for a half-maximal effect (EC50) turned out to be 28 nM in the data set on C3H10T1/2 adipocytes [2] (C3H 10T1/2, adipocytes, infrared thermography, dose response, read-out: EC50 (nM) Thermogenesis) and 27.1 nM with C3H10T1/2 adipocytes [3]. In addition, the “thermogenic response of CHO cells” value in data set [4] is recorded as “responsive in a dose-dependent manner”.
`CC(N/C(=N\C#N)Nc1ccncc1)C(C)(C)C` (centres unmarked) [Pinacidil]: the “thermogenesis in the genitalia” value in the data set with genitalia is “increase in thermogenesis”.
For `C=C(C)[C@H]1Cc2c(ccc3c2O[C@@H]2COc4cc(OC)c(OC)cc4[C@@H]2C3=O)O1` [Rotenone], the UCP2-mediated thermogenesis result in the data set with UCP2 was “inhibited”. In addition, the EC50 with C3H10T1/2 adipocytes [2] (C3H 10T1/2, read-out: EC50 (nM) Thermogenesis) came out at 8.5 nM. The “thermogenesis of cells treated with β-AR-agonists” value in the data set on C3H10T1/2 adipocytes [2] (cells treated with 50 nM of the various β-AR-agonists) is “inhibited thermogenesis”. The thermogenesis in yeast result in the data set with yeast was “inhibited thermogenesis”. Moreover, the “thermogenesis in human adipocytes” value in the data set on human adipocytes is on record as “inhibited thermogenesis”.
In the case of `COc1cc([C@@H]2c3cc4c(cc3[C@@H](O[C@@H]3O[C@@H]5CO[C@@H](C)O[C@H]5[C@H](O)[C@H]3O)[C@H]3COC(=O)[C@H]23)OCO4)cc(OC)c1O` [etoposide], in the data set with hair-loss, the “thermal activity as a result of hair-loss” value is “increased thermal activity in both the fronts and backs as a result of hair-loss”.
As to VEGF, in the data set with HUVEC cells, the “thermogenesis in HUVEC cells” value is recorded as “induced thermogenesis”. Besides, in the data set with tissue vascularization, the “thermogenesis in local area of injection” value was “enhanced thermogenesis”.
As to lipopolysaccharide [LPS], the liver thermogenesis result with liver is on record as “thermogenesis is increased”.
